Measured values from patent US11465998B2, “Therapeutic compounds and methods of use thereof” (Regents of the University of Minnesota, priority 2019, dated 2022).
Entries after “also recorded” stand apart in the source; their conditions may differ.

Target: T1, human NOD2 (Homo sapiens, UniProt Q9HC29)
T1 construct: host or cells: HEK293
Experiment: human NOD2 specific reporter gene assay (NF-κB induction)
Assay type: cell-based
Conditions: for hNOD2-agonistic activity (in words): human NOD2 reporter gene assay; for EC50: human NOD2 specific reporter gene assay, arithmetic mean of quadruplicate samples, NA* indicates inactive under the tested conditions, read-out: hNOD2 Agonistic Activity (μM), EC50
Procedure: Example 5: High-throughput screens in porcine blood: Curated compound collections were obtained from the Institute for Therapeutics Discovery & Development at the University of Minnesota. Compound transfers from source (80 nL of 10 mM stocks) to assay plates were performed using an Echo 550 acoustic liquid handler (Labcyte, Sunnyvale, Calif.). For most libraries, a target final concentration of 10 μM of compound (in a final volume of 80 μL for the assay described below) was achieved. Compound plates were hermetically sealed and stored at −80° C. until used. Fresh, heparin-anticoagulated porcine blood from healthy animals were obtained under USDA supervision from Midwest Research Swine, LLC (Glencoe, Minn.). 80 μL of hematocrit-enriched porcine blood (low-speed centrifugation, followed by resuspension in DMEM supplemented with 10% fetal bovine serum) was added to compound plates and incubated for 15 h. The following day, the plates were briefly centrifuged (100 g, 10 min), and supernatants were transferred using an automated ViaFlow 384 transfer device (Integra Biosciences Corp., Hudson, N.H.) to assay plates containing of 10^6 cells/mL of each of the following NF-κB/secreted alkaline phosphatase reporter cells suspended in HEK-Blue Detection Media: human IFN-α/β, human IFN-γ, human TNF-α/IL-1β (InvivoGen, San Diego, Calif.). NF-κB translocation was assayed spectrophotometrically using an alkaline phosphatase-specific chromogen (present in HEK-detection medium as supplied by InvivoGen) at 620 nm using a SpectraMax M4 multimode microplate reader (Molecular Devices, Sunnyvale, Calif.). Z′ factors were computed for each TLR/NOD-specific signals. Hits were defined as signals >4σ (in-plate standard deviations for test compounds above negative control means), were deconvoluted in full dose-response assays in human TLR-2/-3/-4/-5/-7/-8/-9 and NOD-1/NOD-2-specific reporter cells in liquid handler-assisted assay formats as described previously. Example 6: Murine knockout cell-lines: The following reagents were obtained through BEI Resources, NIAID, NIH: the microglial cell line derived from MAL/MyD88 double knockout Mice (NR-9904), and the macrophage cell line derived from TRIF/TRAM knockout mice (NR-9568). Example 7: Human NOD1/2-specific reporter gene assays (NF-κB induction), and TLR-2/-3/-4/-5/-7/-8/-9/STING/ISG counter-screens: The induction of NF-κB was quantified using human TLR-2/-3/-4/-5/-7/-8/-9/NOD-1/NOD-2/STING/ISG-specific, rapid-throughput, liquid handler-assisted reporter gene assays as previously described by us (Wu, W. et al. J. Med. Chem. 2010, 53, 3198-3213; Shukla, N. M. et al. J. Med. Chem. 2010, 53, 4450-4465; Agnihotri, G. et al. J. Med. Chem. 2011, 54, 1490-1510 and Ukani, R. et al. Bioorg. Med. Chem. Lett. 2012, 22, 293-295). HEK293 cells stably co-transfected with the appropriate hTLR and secreted alkaline phosphatase (sAP) were maintained in HEK-Blue™ Selection medium. Stable expression of secreted alkaline phosphatase (sAP) under control of NF-κB/AP-1/IRF promoters is inducible by appropriate innate immune stimuli, and extracellular sAP in the supernatant is proportional to NF-κB/IRF induction. Reporter cells were incubated at a density of ˜10^5 cells/ml in a volume of 80 μl/well, in 384-well, flat-bottomed, cell culture-treated microtiter plates in the presence of graded concentrations of stimuli. sAP was assayed spectrophotometrically using an alkaline phosphatase-specific chromogen (present in HEK-detection medium as supplied by InvivoGen) at 620 nm. Example 8: Multiplexed immunoassays for human cytokines: Fresh human peripheral blood mononuclear cells (hPBMC) were isolated from human blood obtained by venipuncture in Cell Preparation Tubes (CPT, Beckton-Dickinson) with informed consent and as per guidelines approved by the University of Minnesota Human Subjects Experimentation Committee. Aliquots of PBMCs or THP-1 cells (10^5 cells in 100 μL/well) were stimulated for 16 h with graded concentrations of test compounds. […]

T1 sequence (Q9HC29 whole entry): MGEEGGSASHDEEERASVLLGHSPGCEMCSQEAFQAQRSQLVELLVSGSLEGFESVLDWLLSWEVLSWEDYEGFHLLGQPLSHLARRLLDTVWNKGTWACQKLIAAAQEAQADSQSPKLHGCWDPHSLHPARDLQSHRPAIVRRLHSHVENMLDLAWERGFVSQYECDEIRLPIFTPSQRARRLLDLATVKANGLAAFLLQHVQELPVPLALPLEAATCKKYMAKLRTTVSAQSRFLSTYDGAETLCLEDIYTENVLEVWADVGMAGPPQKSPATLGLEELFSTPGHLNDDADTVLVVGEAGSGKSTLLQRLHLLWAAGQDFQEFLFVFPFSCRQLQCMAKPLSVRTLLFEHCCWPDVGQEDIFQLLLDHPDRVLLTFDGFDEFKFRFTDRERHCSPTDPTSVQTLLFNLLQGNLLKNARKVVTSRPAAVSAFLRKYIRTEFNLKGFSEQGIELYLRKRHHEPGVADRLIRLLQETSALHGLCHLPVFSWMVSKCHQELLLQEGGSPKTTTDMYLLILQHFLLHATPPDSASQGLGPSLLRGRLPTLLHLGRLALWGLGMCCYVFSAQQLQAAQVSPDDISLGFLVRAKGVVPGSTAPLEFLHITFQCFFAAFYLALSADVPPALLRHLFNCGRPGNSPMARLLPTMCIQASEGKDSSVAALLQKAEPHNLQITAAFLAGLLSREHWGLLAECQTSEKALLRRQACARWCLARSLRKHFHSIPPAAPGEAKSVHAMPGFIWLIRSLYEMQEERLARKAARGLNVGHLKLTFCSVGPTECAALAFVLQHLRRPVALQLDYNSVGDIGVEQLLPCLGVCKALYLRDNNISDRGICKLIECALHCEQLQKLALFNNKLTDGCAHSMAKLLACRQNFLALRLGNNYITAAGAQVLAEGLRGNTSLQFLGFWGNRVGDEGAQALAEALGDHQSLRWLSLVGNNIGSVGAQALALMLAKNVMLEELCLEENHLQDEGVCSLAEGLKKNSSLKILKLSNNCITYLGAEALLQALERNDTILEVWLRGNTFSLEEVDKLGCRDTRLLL

| Compound | hNOD2-agonistic activity (in words) | EC50 [µM] |
| --- | --- | --- |
| NC(=O)c1coc(-n2cnc3ccccc32)n1 [Compound 3e, 2-(1H-Benzo[d]imidazol-1-yl)oxazole-4-carboxamide] | devoid of activity |  |
| N#Cc1cc(-n2cnc3ccccc32)cs1 [Compound 4a, 4-(1H-Benzo[d]imidazol-1-yl)thiophene-2-carbonitrile] | inactive |  |
| NC(=O)c1cccc(-n2cnc3ccccc32)c1 [Compound 3k, 3-(1H-Benzo[d]imidazol-1-yl)benzamide] | devoid of activity |  |
| Cc1nc2ccccc2n1-c1csc(C(N)=O)c1 [Compound 7a, 4-(2-Methyl-1H-benzo[d]imidazol-1-yl)thiophene-2-carboxamide] | lower potency than the hit compound | 15.7 |
| NC(=O)c1cscc1-n1cnc2ccccc21 [Compound 3b, 4-(1H-Benzo[d]imidazol-1-yl)thiophene-3-carboxamide] | inactive |  |
| CCCCCCCCCCCc1nc2ccccc2n1-c1csc(C(N)=O)c1 [Compound 7i, 4-(2-Undecyl-1H-benzo[d]imidazol-1-yl)thiophene-2-carboxamide] |  | 5.81 |
| CCCCCCCCCCCCCc1nc2ccccc2n1-c1csc(C(N)=O)c1 [Compound 7j, 4-(2-Tridecyl-1H-benzo[d]imidazol-1-yl)thiophene-2-carboxamide] | inactive |  |
| CCCCc1nc2cnccc2n1-c1csc(C(N)=O)c1 [Compound 18b, 4-(2-Butyl-1H-imidazo[4,5-c]pyridin-1-yl)thiophene-2-carboxamide] | weakly active | 5.65 |
| CC(C)CCc1nc2ccccc2n1-c1csc(C(N)=O)c1 [Compound 7m, 4-(2-Isopentyl-1H-benzo[d]imidazol-1-yl)thiophene-2-carboxamide] | potencies very similar to the butyl analogue (7d) | 2.91 |
| NC(=O)c1nc(-n2cnc3ccccc32)cs1 [Compound 3f, 4-(1H-Benzo[d]imidazol-1-yl)thiazole-2-carboxamide] | inactive; also recorded: devoid of activity |  |
| NC(=O)c1cncc(-n2cnc3ccccc32)c1 [Compound 3l, 5-(1H-Benzo[d]imidazol-1-yl)nicotinamide] | devoid of activity |  |
| NC(=O)c1cc(-n2cnc3cnccc32)cs1 [Compound 18a, 4-(1H-Imidazo[4,5-c]pyridin-1-yl)thiophene-2-carboxamide] | inactive |  |
| CCCCNC(=O)c1cc(-n2cnc3ccccc32)cs1 [Compound 2e, 4-(1H-Benzo[d]imidazol-1-yl)-N-butylthiophene-2-carboxamide] | inactive |  |
| O=C(Nc1ccccc1)c1cc(-n2cnc3ccccc32)cs1 [Compound 2f, 4-(1H-Benzo[d]imidazol-1-yl)-N-phenylthiophene-2-carboxamide] | inactive |  |
| CCCCCc1nc2ccccc2n1-c1csc(C(=N)N)c1 [Compound 13b, 4-(2-Pentyl-1H-benzo[d]imidazol-1-yl)thiophene-2-carboximidamide] | weak activity | 6.57 |
| O=C(NCc1ccccc1)c1cc(-n2cnc3ccccc32)cs1 [Compound 2g, 4-(1H-Benzo[d]imidazol-1-yl)-N-benzylthiophene-2-carboxamide] | inactive |  |
| CCCCCc1nc2ccccc2n1-c1csc(C(N)=O)n1 [Compound 14, 4-(2-Pentyl-1H-benzo[d]imidazol-1-yl)thiazole-2-carboxamide] | weakly active | 7.39 |

| Compound | hNOD2-agonistic activity (in words) | EC50 [µM] |
| --- | --- | --- |
| CCCCCCCCCc1nc2ccccc2n1-c1csc(C(N)=O)c1 [Compound 7h, 4-(2-Nonyl-1H-benzo[d]imidazol-1-yl)thiophene-2-carboxamide] |  | 3.06 |
| O=C(Nc1ccncc1)c1cc(-n2cnc3ccccc32)cs1 [Compound 2i, 4-(1H-Benzo[d]imidazol-1-yl)-N-(pyridin-4-yl)thiophene-2-carboxamide] | inactive |  |
| NC(=O)c1cc(-n2cnc3c(N)nccc32)cs1 [Compound 19a, 4-(4-Amino-1H-imidazo[4,5-c]pyridin-1-yl)thiophene-2-carboxamide] | inactive |  |
| NCc1ccc(NC(=O)c2cc(-n3cnc4ccccc43)cs2)cc1 [Compound 2n, N-(4-(Aminomethyl)phenyl)-4-(1H-benzo[d]imidazol-1-yl)thiophene-2-carboxamide] | inactive |  |
| CCCc1nc2ccccc2n1-c1csc(C(N)=O)c1 [Compound 7c, 4-(2-Propyl-1H-benzo[d]imidazol-1-yl)thiophene-2-carboxamide] | lower potency than the hit compound | 8.26 |
| CCCCCc1nc2ccccc2n1-c1csc(C(=O)NC)c1 [Compound 11c, N-Methyl-4-(2-pentyl-1H-benzo[d]imidazol-1-yl)thiophene-2-carboxamide] | weak activity | 7.02 |
| C=C(C)CCc1nc2ccccc2n1-c1csc(C(N)=O)c1 [Compound 7n, 4-(2-(3-Methylbut-3-en-1-yl)-1H-benzo[d]imidazol-1-yl)thiophene-2-carboxamide] | potencies very similar to the butyl analogue (7d) | 3.24 |
| N=C(NO)c1cc(-n2cnc3ccccc32)cs1 [Compound 4b, 4-(1H-Benzo[d]imidazol-1-yl)-N-hydroxythiophene-2-carboximidamide] | inactive |  |
| NC(=O)c1cnc(-n2cnc3ccccc32)s1 [Compound 3i, 2-(1H-Benzo[d]imidazol-1-yl)thiazole-5-carboxamide] | devoid of activity |  |
| CNC(=O)c1cc(-n2cnc3ccccc32)cs1 [Compound 2d, 4-(1H-Benzo[d]imidazol-1-yl)-N-methylthiophene-2-carboxamide] | inactive |  |
| CCCCc1nc2ccccc2n1-c1csc(C(N)=O)c1 [Compound 7d, 4-(2-Butyl-1H-benzo[d]imidazol-1-yl)thiophene-2-carboxamide] |  | 2.07 |
| CCCCc1nc2c(N)nccc2n1-c1csc(C(N)=O)c1 [Compound 19b, 4-(4-Amino-2-butyl-1H-imidazo[4,5-c]pyridin-1-yl)thiophene-2-carboxamide] | weakly active | 4.08 |
| CCc1nc2ccccc2n1-c1csc(C(N)=O)c1 [Compound 7b, 4-(2-Ethyl-1H-benzo[d]imidazol-1-yl)thiophene-2-carboxamide] | lower potency than the hit compound | 13.2 |
| NC(=O)c1sccc1-n1cnc2ccccc21 [Compound 3c, 3-(1H-Benzo[d]imidazol-1-yl)thiophene-2-carboxamide] | inactive |  |
| NC(=O)c1ccc(-n2cnc3ccccc32)cc1 [Compound 3j, 4-(1H-Benzo[d]imidazol-1-yl)benzamide] | devoid of activity |  |
| NC(=O)c1csc(-n2cnc3ccccc32)n1 [Compound 3h, 2-(1H-Benzo[d]imidazol-1-yl)thiazole-4-carboxamide] | devoid of activity |  |
| NC(=O)c1cc(-n2cnc3ccccc32)c[nH]1 [Compound 3d, 4-(1H-Benzo[d]imidazol-1-yl)-1H-pyrrole-2-carboxamide] | devoid of activity |  |
